The values below come from patent US20240043435A1, “TYK-2 INHIBITOR” (BEIGENE, LTD., priority 2020, published 2024).

The test system of assay [1] is JAK2, TYK2/p-STAT4 (Tyr693) activated by IL-12 in NK-92 cell line. Nature of the assay: IL-12-JAK2, TYK2/p-STAT4 (Tyr693) inhibition IC50 cellular assay. As to conditions: for Selectivity fold (TYK2/JAK2): Cellular assay, pSTAT5/GM-CSF IC50 vs pSTAT4/IL-12 IC50; for pIC50: NK92, Cellular assay, read-out: pSTAT4/IL-12 IC50. Type of assay: cell-based. The method in brief:
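NK-92 cells were starved overnight without IL-2 and preincubated 1 h at 37° C with compound (8 doses, 10000–0.61 nM, 4-fold, 0.2% DMSO). They were then stimulated with IL-12 (40 ng/ml final) for 30 min. Lysate p-STAT4 (Tyr693) was read by AlphaLISA SureFire; IC50 from four-parameter logistic fit.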

Assay [2] deals with T1, TYK2-JH2 (aa 575-869, in-house) protein (Homo sapiens, UniProt P29597).
T1 construct: TYK2-JH2 (aa 575-869, in-house) protein; made in house
T1 sequence (P29597 575-869): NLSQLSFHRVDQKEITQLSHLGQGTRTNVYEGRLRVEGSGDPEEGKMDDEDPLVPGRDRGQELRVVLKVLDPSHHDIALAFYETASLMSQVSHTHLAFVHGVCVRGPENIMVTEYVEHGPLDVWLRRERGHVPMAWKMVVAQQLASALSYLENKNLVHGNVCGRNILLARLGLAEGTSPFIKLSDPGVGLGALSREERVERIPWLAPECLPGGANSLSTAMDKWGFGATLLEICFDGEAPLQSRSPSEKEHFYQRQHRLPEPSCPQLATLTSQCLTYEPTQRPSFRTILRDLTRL
Nature of the assay: TYK2-JH2 biochemical assay (HTRF probe displacement). Type of assay: binding. Conditions: Biochemical assay; read-out: TYK2-JH2 IC50. A digest of the protocol:
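Recombinant TYK2-JH2 (0.2 nM) was pre-incubated 0.5 h at room temperature with compounds (10 doses, 5-fold dilution; 500× DMSO stocks from 500 uM) in 20 mM HEPES pH 7.5, 10 mM MgCl2, 0.005% BSA, 2 mM DTT, 0.015% Brij-35. Probe displacement was read by HTRF (ex337, em620/665 nm); IC50 from four-parameter logistic fit.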
For orientation: In TR-FRET formats the signal depends on donor and acceptor labels being close together.

The test system of a further assay is pSTAT5/GM-CSF. Nature of the assay: pSTAT5/GM-CSF cellular assay (JAK2 selectivity). The class given is cell-based. Conditions: for Selectivity fold (TYK2/JAK2): pSTAT5/GM-CSF IC50 over pSTAT4/IL-12 IC50.

SMILES strings stand for the structures. pIC50: −log10 of the molar value.

With `CC(=O)Nc1cc(Nc2cccc(S(C)(=O)=O)n2)c(-c2cc(Cl)c(C(C)(C)O)cn2)cn1` [Example B17, N-(4-chloro-5-(2-hydroxypropan-2-yl)-4′-((6-(methylsulfonyl)pyridin-2-yl)amino)-[2,3′-bipyridin]-6′-yl)acetamide], the “Selectivity fold (TYK2/JAK2)” value in assay [1] is on record as over 4878 fold. The pIC50 in assay [1] was 8.69; in assay [2], 10.46; in the assay with pSTAT5/GM-CSF, under 5.00.

In the case of `CC(=O)Nc1cc(Nc2cncc(S(C)(=O)=O)n2)c(-c2ccc(N3C[C@@H](C)O[C@@H](C)C3)cn2)cn1` [Example C22, N-(5-(cis-2,6-dimethylmorpholino)-4′-((6-(methylsulfonyl)pyrazin-2-yl)amino)-[2,3′-bipyridin]-6′-yl)acetamide], the “Selectivity fold (TYK2/JAK2)” value in assay [1] is over 21008 fold. For the same molecule, the pIC50 was 9.32 in assay [1], 10.64 in assay [2] and under 5.00 in the assay on pSTAT5/GM-CSF.

For `CC(=O)Nc1cc(Nc2cccc(S(C)(=O)=O)c2)c(-c2ccc(N3C[C@@H](C)O[C@@H](C)C3)cn2)cn1` [Example C3, N-(5-((cis)-2,6-dimethylmorpholino)-4′-((3-(methylsulfonyl)phenyl)amino)-[2,3′-bipyridin]-6′-yl)acetamide], the “Selectivity fold (TYK2/JAK2)” value in assay [1] is listed as over 1721 fold. The pIC50 was 8.24 in assay [1], 10.49 in assay [2] and under 5.00 in the assay on pSTAT5/GM-CSF.

For `CC(=O)Nc1cc(Nc2cccc(S(C)(=O)=O)n2)c(-c2cc(N3CCOCC3)n(C)n2)cn1` [Example O1, N-(5-(1-methyl-5-morpholino-1H-pyrazol-3-yl)-4-((6-(methylsulfonyl)pyridin-2-yl)amino)pyridin-2-yl)acetamide], the values for the pIC50 (in assay [1]; in assay [2]; in the assay with pSTAT5/GM-CSF) were 9.38, 10.77 and 5.92, respectively. The “Selectivity fold (TYK2/JAK2)” value with pSTAT5/GM-CSF came out at 2929 fold.

`COCCOc1cc(Nc2cc(NC(C)=O)ncc2-c2cc(N3CCOCC3)n(C)n2)nc(S(C)(=O)=O)c1` [Example O2, N-(4-((4-(2-methoxyethoxy)-6-(methylsulfonyl)pyridin-2-yl)amino)-5-(1-methyl-5-morpholino-1H-pyrazol-3-yl)pyridin-2-yl)acetamide]: the pIC50 in assay [1] was 8.95; in assay [2], 10.80; in the assay with pSTAT5/GM-CSF, 5.15. Also, the “Selectivity fold (TYK2/JAK2)” value in the assay on pSTAT5/GM-CSF worked out at 6265 fold.

With `COc1cc(Nc2cc(NC(C)=O)ncc2-c2cc(C)n(C)n2)nc(S(C)(=O)=O)c1` [Example N4, N-(5-(1,5-dimethyl-1H-pyrazol-3-yl)-4-((4-methoxy-6-(methylsulfonyl)pyridin- -2-yl)amino)pyridin-2-yl)acetamide], the pIC50 is 9.86 in assay [1], 10.54 in assay [2] and under 5.00 with pSTAT5/GM-CSF. Besides, in the assay with pSTAT5/GM-CSF, the “Selectivity fold (TYK2/JAK2)” value is recorded as over 72992 fold.

As to `CC(=O)Nc1cc(Nc2cc(OCC(O)CO)cc(S(C)(=O)=O)n2)c(-c2ccn(C)n2)cn1` (centres unmarked) [Example J48, N-(4-((4-(2,3-dihydroxypropoxy)-6-(methylsulfonyl)pyridin-2-yl)amino)-5-(1-methyl-1H-pyrazol-3-yl)pyridin-2-yl)acetamide], the pIC50 was 7.15 in assay [1], 10.46 in assay [2] and under 5.00 in the assay on pSTAT5/GM-CSF. Moreover, in the assay with pSTAT5/GM-CSF, the “Selectivity fold (TYK2/JAK2)” value is over 1421411 fold.

Consider `CC(=O)Nc1cc(Nc2cc(OC3COC3)cc(S(C)(=O)=O)n2)c(-c2ccn(C)n2)cn1` [Example J22, N-(5-(1-methyl-1H-pyrazol-3-yl)-4-((6-(methylsulfonyl)-4-(oxetan-3-yloxy)pyridin-2-yl)amino)pyridin-2-yl)acetamide], for which the figures for the pIC50 (in assay [1]; in assay [2]; in the assay with pSTAT5/GM-CSF) were 8.71, 10.43 and under 5.00, respectively. Further, the “Selectivity fold (TYK2/JAK2)” value in the assay on pSTAT5/GM-CSF is given as over 5181 fold.

Regarding `CC[C@H](C)Oc1cc(Nc2cc(NC(C)=O)ncc2-c2ccn(C)n2)nc(S(C)(=O)=O)c1` [Example J60, (S)-N-(4-((4-(sec-butoxy)-6-(methylsulfonyl)pyridin-2-yl)amino)-5-(1-methyl-1H-pyrazol-3-yl)pyridin-2-yl)acetamide], the figures for the pIC50 (in assay [1]; in assay [2]; in the assay on pSTAT5/GM-CSF) were 9.10, 10.68 and under 5.00, respectively. The “Selectivity fold (TYK2/JAK2)” value with pSTAT5/GM-CSF is listed as over 12547 fold.

`CCn1ccc(-c2cnc(NC(C)=O)cc2Nc2cc(C)cc(S(C)(=O)=O)c2)n1` [Example M11, N-(5-(1-ethyl-1H-pyrazol-3-yl)-4-((3-methyl-5-(methylsulfonyl)phenyl)amino)pyridin-2-yl)acetamide]: the values for the pIC50 (in assay [1]; in assay [2]; with pSTAT5/GM-CSF) were 8.04, 10.47 and under 5.00, respectively. Further, the “Selectivity fold (TYK2/JAK2)” value in the assay on pSTAT5/GM-CSF was over 1107 fold.

As for `CC(=O)Nc1cc(Nc2cc(C)cc(S(C)(=O)=O)n2)c(-c2ccc(N3C[C@@H](C)O[C@@H](C)C3)cn2)cn1` [Example C1, N-(5-(cis-2,6-dimethylmorpholino)-4′-((4-methyl-6-(methylsulfonyl)pyridin-2-yl)amino)-[2,3′-bipyridin]-6′-yl)acetamide], in assay [1], the “Selectivity fold (TYK2/JAK2)” value was found to be 639 fold. In addition, the pIC50 was 9.06 in assay [1], 10.57 in assay [2] and 6.25 in the assay with pSTAT5/GM-CSF.

For `CCn1ccc(-c2cnc(NC(C)=O)cc2Nc2cc(OC(C)C)cc(S(C)(=O)=O)n2)n1` [Example M6, N-(5-(1-ethyl-1H-pyrazol-3-yl)-4-((4-isopropoxy-6-(methylsulfonyl)pyridin-2-yl)amino)pyridin-2-yl)acetamide], the results for the pIC50 (in assay [1]; in assay [2]; in the assay with pSTAT5/GM-CSF) were 8.92, 10.49 and under 5.00, respectively. For the same molecule, the “Selectivity fold (TYK2/JAK2)” value in the assay on pSTAT5/GM-CSF is on record as over 8264 fold.

For `CC(=O)Nc1cc(Nc2cccc(S(C)(=O)=O)n2)c(-c2ccc(N3CCOC(C)(C)C3)cn2)cn1` [Example B12, N-(5-(2,2-dimethylmorpholino)-4′-((6-(methylsulfonyl)pyridin-2-yl)amino)-[2,3′-bipyridin]-6′-yl)acetamide], in assay [1], the “Selectivity fold (TYK2/JAK2)” value amounted to 824 fold. Also, the pIC50 in assay [1] is 9.13; in assay [2], 10.47; in the assay with pSTAT5/GM-CSF, 6.21.

Consider `CC(=O)Nc1cc(Nc2cc(OC3CCOC3)cc(S(C)(=O)=O)n2)c(-c2ccn(C)n2)cn1` (centres unmarked) [Example J46, N-(5-(1-methyl-1H-pyrazol-3-yl)-4-((6-(methylsulfonyl)-4-((tetrahydrofuran-3-yl)oxy)pyridin-2-yl)amino)pyridin-2-yl)acetamide], for which the pIC50 is 8.63 in assay [1], 10.48 in assay [2] and under 5.00 in the assay on pSTAT5/GM-CSF. Also, in the assay with pSTAT5/GM-CSF, the “Selectivity fold (TYK2/JAK2)” value is recorded as over 4255 fold.

Regarding `CC(=O)Nc1cc(Nc2cc(C#N)cc(S(C)(=O)=O)c2)c(-c2ccc(C(C)(C)O)cn2)cn1` [Example H20, N-(4′-((3-cyano-5-(methylsulfonyl)phenyl)amino)-5-(2-hydroxypropan-2-yl)-[2,3′-bipyridin]-6′-yl)acetamide], in assay [1], the “Selectivity fold (TYK2/JAK2)” value is recorded as over 284 fold. For the same molecule, the pIC50 in assay [1] is 7.45; in assay [2], 10.34; in the assay with pSTAT5/GM-CSF, under 5.00.

As to `CCn1ccc(-c2cnc(NC(C)=O)cc2Nc2cccc(S(C)(=O)=O)c2)n1` [Example M8, N-(5-(1-ethyl-1H-pyrazol-3-yl)-4-((3-(methylsulfonyl)phenyl)amino)pyridin-2-yl)acetamide], the pIC50 is 8.79 in assay [1], 10.40 in assay [2] and under 5.00 with pSTAT5/GM-CSF. Also, the “Selectivity fold (TYK2/JAK2)” value in the assay with pSTAT5/GM-CSF is given as over 6097 fold.

In the case of `CC(=O)Nc1cc(Nc2cc(C3CCOCC3)cc(S(C)(=O)=O)n2)c(-c2ccc3c(n2)OCC(C)(C)O3)cn1` [Example Q23, N-(5-(2,2-dimethyl-2,3-dihydro-[1,4]dioxino[2,3-b]pyridin-6-yl)-4-((6-(methylsulfonyl)-4-(tetrahydro-2H-pyran-4-yl)pyridin-2-yl)amino)pyridin-2-yl)acetamide], the pIC50 in assay [1] is 9.22; in assay [2] it was 10.55; with pSTAT5/GM-CSF, 5.09. In addition, the “Selectivity fold (TYK2/JAK2)” value with pSTAT5/GM-CSF was 13390 fold.

In the case of `CCn1ccc(-c2cnc(NC(C)=O)cc2Nc2cc(OCCO)cc(S(C)(=O)=O)c2)n1` [Example M15, N-(5-(1-ethyl-1H-pyrazol-3-yl)-4-((3-(2-hydroxyethoxy)-5-(methylsulfonyl)phenyl)amino)pyridin-2-yl)acetamide], the values for the pIC50 (in assay [1]; in assay [2]; with pSTAT5/GM-CSF) were 7.99, 10.32 and under 5.00, respectively. Also, the “Selectivity fold (TYK2/JAK2)” value with pSTAT5/GM-CSF is over 977 fold.

As to `COCCOc1ccc(-c2cnc(NC(C)=O)cc2Nc2cc(OCCOC)cc(S(C)(=O)=O)n2)nc1` [Example D8, N-(5-(2-methoxyethoxy)-4′-((4-(2-methoxyethoxy)-6-(methylsulfonyl)pyridin-2-yl)amino)-[2,3′-bipyridin]-6′-yl)acetamide], the “Selectivity fold (TYK2/JAK2)” value in assay [1] is listed as over 22573 fold. Moreover, the pIC50 was 9.35 in assay [1], 10.44 in assay [2] and under 5.00 in the assay on pSTAT5/GM-CSF.

As to `CC(=O)Nc1cc(Nc2cc(C3CCOCC3)cc(S(C)(=O)=O)n2)c(-c2ccn(C)n2)cn1` [Example J61, N-(5-(1-methyl-1H-pyrazol-3-yl)-4-((6-(methylsulfonyl)-4-(tetrahydro-2H-pyran-4-yl)pyridin-2-yl)amino)pyridin-2-yl)acetamide], the values for the pIC50 (in assay [1]; in assay [2]; in the assay with pSTAT5/GM-CSF) were 8.85, 10.72 and under 5.00, respectively. The “Selectivity fold (TYK2/JAK2)” value in the assay on pSTAT5/GM-CSF was over 7042 fold.
